Laboratory results published in US20180244611A1, “Modulators of the Cystic Fibrosis Transmembrane Conductance Regulator Protein and Methods of Use” (AbbVie S.à.r.l., priority 2017, published 2018).

Columns and labels:
F508delCFTR [1] = target: T1, F508delCFTR (Homo sapiens, UniProt P13569, DEL508-508); experiment: Cell Surface Expression-Horse Radish Peroxidase (CSE-HRP) assay, test compound without co-corrector; assay type: cell-based; conditions: for EC50: CSE-HRP assay, test compound without co-corrector; for Emax: maximum at any tested concentration, normalized to on-plate positive control, without co-corrector;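 for Emax: percent of on-plate 2 µM positive control corrector response over DMSO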
T1 construct: expressed in transfected cells; host or cells: CFBE41o- human lung-derived epithelial cells (CFBE41o-F508delCFTR-HRP), doxycycline-inducible
T1 sequence (P13569 with tags, fused parts or gaps DEL508-508): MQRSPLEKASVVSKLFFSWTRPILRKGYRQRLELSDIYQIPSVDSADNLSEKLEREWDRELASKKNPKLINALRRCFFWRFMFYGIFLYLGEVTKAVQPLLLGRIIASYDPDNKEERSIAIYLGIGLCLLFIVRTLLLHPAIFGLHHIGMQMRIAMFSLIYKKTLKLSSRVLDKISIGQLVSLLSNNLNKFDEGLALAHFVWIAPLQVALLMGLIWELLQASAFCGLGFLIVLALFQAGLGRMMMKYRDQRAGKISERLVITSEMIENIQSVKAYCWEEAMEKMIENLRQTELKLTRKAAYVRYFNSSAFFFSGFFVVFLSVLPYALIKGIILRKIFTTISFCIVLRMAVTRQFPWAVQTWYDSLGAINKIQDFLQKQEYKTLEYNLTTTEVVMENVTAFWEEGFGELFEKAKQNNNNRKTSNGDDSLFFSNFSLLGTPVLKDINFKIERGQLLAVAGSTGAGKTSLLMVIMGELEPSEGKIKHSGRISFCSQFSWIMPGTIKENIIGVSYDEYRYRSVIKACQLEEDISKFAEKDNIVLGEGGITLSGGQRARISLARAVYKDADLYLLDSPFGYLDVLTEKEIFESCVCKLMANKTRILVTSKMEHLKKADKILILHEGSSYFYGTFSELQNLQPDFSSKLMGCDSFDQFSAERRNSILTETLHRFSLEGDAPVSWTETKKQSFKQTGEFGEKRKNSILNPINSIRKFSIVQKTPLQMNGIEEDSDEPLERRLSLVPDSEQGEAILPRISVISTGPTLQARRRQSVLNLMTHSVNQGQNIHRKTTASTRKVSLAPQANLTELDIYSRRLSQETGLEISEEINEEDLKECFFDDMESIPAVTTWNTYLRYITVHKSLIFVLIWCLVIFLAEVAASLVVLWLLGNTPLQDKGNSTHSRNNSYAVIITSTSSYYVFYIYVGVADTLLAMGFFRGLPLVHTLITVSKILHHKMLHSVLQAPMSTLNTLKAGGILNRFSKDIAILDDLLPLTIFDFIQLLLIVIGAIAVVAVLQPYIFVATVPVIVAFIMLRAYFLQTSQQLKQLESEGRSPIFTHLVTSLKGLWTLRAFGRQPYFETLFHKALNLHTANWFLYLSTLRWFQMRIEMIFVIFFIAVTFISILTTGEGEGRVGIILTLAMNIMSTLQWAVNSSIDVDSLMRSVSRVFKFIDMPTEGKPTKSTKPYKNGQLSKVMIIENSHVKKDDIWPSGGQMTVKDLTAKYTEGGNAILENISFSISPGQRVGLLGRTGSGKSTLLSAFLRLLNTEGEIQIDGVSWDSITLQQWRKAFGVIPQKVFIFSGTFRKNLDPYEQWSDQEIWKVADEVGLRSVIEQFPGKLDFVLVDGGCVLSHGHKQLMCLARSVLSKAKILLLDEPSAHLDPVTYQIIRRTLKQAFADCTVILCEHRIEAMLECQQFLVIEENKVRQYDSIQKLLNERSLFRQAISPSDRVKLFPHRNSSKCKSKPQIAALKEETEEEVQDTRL
In short: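 Compound without co-corrector was tested at eight 3-fold concentrations, top 20 μM, for 18-24 h at 33° C on doxycycline-induced (0.5 μg/mL, 72 h) CFBE41o- F508delCFTR-HRP cells. After DPBS washes, luminol luminescence gave % activity relative to on-plate positive control minus DMSO; EC50 came from triplicate-plate sigmoidal fitting.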

F508delCFTR [2] = target: T1, F508delCFTR; experiment: Cell Surface Expression-Horse Radish Peroxidase (CSE-HRP) assay, test compound with co-corrector; assay type: cell-based; conditions: for EC50: CSE-HRP assay, test compound with 2 μM co-corrector; for Maximum % activity (with co-corrector): maximum at any tested concentration, normalized to on-plate positive control, with 2 μM co-corrector;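 for Maximum % activity (with co-corrector): percent of 2 µM positive control corrector over DMSO; co-corrector is that same compound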
In short: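 Surface-expression read-out: luminol luminescence from an HRP tag in the fourth exofacial loop of F508delCFTR, in doxycycline-induced (0.5 μg/mL, 72 h) CFBE41o- cells. Compound plus 2 μM co-corrector added for 18-24 h at 33° C., 8-point 3-fold series up to 20 μM. EC50 from a sigmoidal fit with variable Hill slope, normalised to positive control, triplicate plates.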

| Compound | EC50 (F508delCFTR [1]) | Emax (F508delCFTR [1]) | EC50 (F508delCFTR [2]) | Maximum % activity (with co-corrector) (F508delCFTR [2]) |
| --- | --- | --- | --- | --- |
| Cc1ccccc1S(=O)(=O)NC(=O)C1CCc2c(-c3c[nH]nc3C)cccc21 (stereo not shown) [III-101] | ≥ 10 µM | < 50% | ≥ 10 µM | + (<150) |
| Cc1ccccc1S(=O)(=O)NC(=O)C1CCc2c(-c3cnn(C)c3)cccc21 (stereo not shown) [III-102] | ≥ 10 µM | < 50% | ≥ 10 µM | + (<150) |
| Nc1cccc(S(=O)(=O)NC(=O)C2CCCc3cccc(Cl)c32)n1 (stereo not shown) [III-110] | ≥ 10 µM | < 50% | ≥ 10 µM | + (<150) |
| CCC1(C(=O)NS(=O)(=O)c2ccc(Cl)cc2Cl)CCc2c(Cl)cccc21 (stereo not shown) [III-113] | ≥ 10 µM | < 50% | < 3 µM | ++ (≥150 and <350) |
| CCC1(C(=O)NS(=O)(=O)c2c(F)cccc2F)CCc2c(Cl)cccc21 (stereo not shown) [III-115] | < 3 µM | < 50% | < 3 µM | ++ (≥150 and <350) |
| CCC1(C(=O)NS(=O)(=O)c2cccc(Cl)c2)CCc2c(Cl)cccc21 (stereo not shown) [III-117] | 3 to 10 µM | < 50% | < 3 µM | ++ (≥150 and <350) |
| CCC1(C(=O)NS(=O)(=O)c2cc(C)ccc2Cl)CCc2c(Cl)cccc21 (stereo not shown) [III-118] | ≥ 10 µM | < 50% | ≥ 10 µM | + (<150) |
| CCC1(C(=O)NS(=O)(=O)c2ccc(OC(F)(F)F)cc2)CCc2c(Cl)cccc21 (stereo not shown) [III-119] | ≥ 10 µM | < 50% | 3 to 10 µM | + (<150) |
| CCC1(C(=O)NS(=O)(=O)c2ccccc2C#N)CCc2c(Cl)cccc21 (stereo not shown) [III-120] | ≥ 10 µM | < 50% | ≥ 10 µM | + (<150) |
| CCC1(C(=O)NS(=O)(=O)c2c(OC)cccc2OC)CCc2c(Cl)cccc21 (stereo not shown) [III-121] | ≥ 10 µM | < 50% | ≥ 10 µM | + (<150) |
| CCC1(C(=O)NS(=O)(=O)c2ccccc2C(F)(F)F)CCc2c(Cl)cccc21 (stereo not shown) [III-122] | ≥ 10 µM | < 50% | ≥ 10 µM | + (<150) |
| CCC1(C(=O)NS(=O)(=O)c2c(C)cccc2Cl)CCc2c(Cl)cccc21 (stereo not shown) [III-124] | ≥ 10 µM | < 50% | ≥ 10 µM | + (<150) |
| CCC1(C(=O)NS(=O)(=O)c2c(C)cccc2C(F)(F)F)CCc2c(Cl)cccc21 (stereo not shown) [III-126] | ≥ 10 µM | < 50% | ≥ 10 µM | + (<150) |
| CCC1(C(=O)NS(=O)(=O)c2ccc(-c3ccccc3)cc2)CCc2c(Cl)cccc21 (stereo not shown) [III-129] | ≥ 10 µM | < 50% | 3 to 10 µM | ++ (≥150 and <350) |
| CCC1(C(=O)NS(=O)(=O)c2c(C)nn(C)c2Cl)CCc2c(Cl)cccc21 (stereo not shown) [III-131] | ≥ 10 µM | < 50% | ≥ 10 µM | + (<150) |
| CCC1(C(=O)NS(=O)(=O)c2ccc3ncccc3c2)CCc2c(Cl)cccc21 (stereo not shown) [III-133] | ≥ 10 µM | < 50% | 3 to 10 µM | ++ (≥150 and <350) |
| CCC1(C(=O)NS(=O)(=O)c2cnccc2N2CCN(C(C)C)CC2)CCc2c(Cl)cccc21 (stereo not shown) [III-137] | ≥ 10 µM | < 50% | ≥ 10 µM | + (<150) |
| CCC1(C(=O)NS(=O)(=O)c2cc[nH]n2)CCc2c(Cl)cccc21 (stereo not shown) [III-145] | 3 to 10 µM | < 50% | 3 to 10 µM | ++ (≥150 and <350) |

The remaining lines, values ahead:

| EC50 (F508delCFTR [1]) | Emax (F508delCFTR [1]) | EC50 (F508delCFTR [2]) | Maximum % activity (with co-corrector) (F508delCFTR [2]) | Compound |
| --- | --- | --- | --- | --- |
| ≥ 10 µM | < 50% | 3 to 10 µM | + (<150) | Cc1ccccc1S(=O)(=O)NC(=O)C1CCc2c(-c3ccc(N4CCOCC4)nc3)cccc21 (stereo not shown) [III-100] |
| ≥ 10 µM | < 50% | 3 to 10 µM | ++ (≥150 and <350) | Cc1ccc(-c2cccc3c2CCC3C(=O)NS(=O)(=O)c2ccccc2C)o1 (stereo not shown) [III-103] |
| ≥ 10 µM | < 50% | ≥ 10 µM | + (<150) | Cc1ccccc1S(=O)(=O)NC(=O)C1CCc2c(-c3c(C)nn(C)c3C)cccc21 (stereo not shown) [III-105] |
| ≥ 10 µM | < 50% | ≥ 10 µM | + (<150) | Cc1ccccc1S(=O)(=O)NC(=O)C1CCc2c(-c3ccnn3C)cccc21 (stereo not shown) [III-106] |
| 3 to 10 µM | 50 to 150% | 3 to 10 µM | +++ (≥350) | COc1cccc2c1CCC[C@H]2C(=O)NS(=O)(=O)c1cccnc1N [III-107] |
| 3 to 10 µM | 50 to 150% | 3 to 10 µM | ++ (≥150 and <350) | Cc1ccc2c(c1)CCC2(C)C(=O)NS(=O)(=O)c1cccc(N)n1 (stereo not shown) [III-108] |
| ≥ 10 µM | < 50% | ≥ 10 µM | + (<150) | COc1cccc2c1CCC[C@H]2C(=O)NS(=O)(=O)c1cccc(N)n1 [III-109] |
| 3 to 10 µM | < 50% | < 3 µM | ++ (≥150 and <350) | CCC1(C(=O)NS(=O)(=O)c2ccc(C)cc2C)CCc2c(Cl)cccc21 (stereo not shown) [III-114] |
| ≥ 10 µM | < 50% | ≥ 10 µM | + (<150) | CCC1(C(=O)NS(=O)(=O)c2cc(Cl)ccc2Cl)CCc2c(Cl)cccc21 (stereo not shown) [III-116] |
| ≥ 10 µM | < 50% | 3 to 10 µM | ++ (≥150 and <350) | CCC1(C(=O)NS(=O)(=O)c2ccc3c(c2)OCCO3)CCc2c(Cl)cccc21 (stereo not shown) [III-123] |
| 3 to 10 µM | < 50% | 3 to 10 µM | ++ (≥150 and <350) | CCC1(C(=O)NS(=O)(=O)c2ccc(Cl)cc2)CCc2c(Cl)cccc21 (stereo not shown) [III-125] |
| ≥ 10 µM | < 50% | ≥ 10 µM | + (<150) | CCC1(C(=O)NS(=O)(=O)c2cccc(F)c2C#N)CCc2c(Cl)cccc21 (stereo not shown) [III-127] |
| 3 to 10 µM | < 50% | 3 to 10 µM | ++ (≥150 and <350) | CCC1(C(=O)NS(=O)(=O)C2(C)CC2)CCc2c(Cl)cccc21 (stereo not shown) [III-128] |
| ≥ 10 µM | < 50% | ≥ 10 µM | + (<150) | CCC1(C(=O)NS(=O)(=O)c2ccc(CN(C)C)cc2)CCc2c(Cl)cccc21 (stereo not shown) [III-130] |
| ≥ 10 µM | < 50% | 3 to 10 µM | ++ (≥150 and <350) | CCC1(C(=O)NS(=O)(=O)c2cccnc2Cl)CCc2c(Cl)cccc21 (stereo not shown) [III-132] |
| ≥ 10 µM | < 50% | ≥ 10 µM | + (<150) | CCC1(C(=O)NS(=O)(=O)c2c(Cl)nc3sccn23)CCc2c(Cl)cccc21 (stereo not shown) [III-134] |
| ≥ 10 µM | < 50% | ≥ 10 µM | + (<150) | CCC1(C(=O)NS(=O)(=O)c2ncccc2C(=O)N(C)C)CCc2c(Cl)cccc21 (stereo not shown) [III-135] |
| ≥ 10 µM | < 50% | ≥ 10 µM | + (<150) | CCC1(C(=O)NS(=O)(=O)C2CCCCC2)CCc2c(Cl)cccc21 (stereo not shown) [III-136] |
| 3 to 10 µM | < 50% | 3 to 10 µM | ++ (≥150 and <350) | CCC1(C(=O)NS(=O)(=O)c2ccccc2OCCN2CCCCC2)CCc2c(Cl)cccc21 (stereo not shown) [III-138] |
| < 3 µM | < 50% | < 3 µM | ++ (≥150 and <350) | CCC1(C(=O)NS(=O)(=O)c2ccc(C)cc2)CCc2c(Cl)cccc21 (stereo not shown) [III-139] |
| ≥ 10 µM | < 50% | ≥ 10 µM | + (<150) | CCC1(C(=O)NS(=O)(=O)Cc2ccccc2)CCc2c(Cl)cccc21 (stereo not shown) [III-140] |
| ≥ 10 µM | < 50% | ≥ 10 µM | + (<150) | CCC1(C(=O)NS(=O)(=O)c2cccc3c2C(=O)N(C)C3=O)CCc2c(Cl)cccc21 (stereo not shown) [III-141] |
| 3 to 10 µM | < 50% | 3 to 10 µM | ++ (≥150 and <350) | CCC1(C(=O)NS(=O)(=O)c2ccc(OC)cc2)CCc2c(Cl)cccc21 (stereo not shown) [III-142] |
| ≥ 10 µM | < 50% | ≥ 10 µM | + (<150) | CCC1(C(=O)NS(=O)(=O)c2ccc(Oc3ccccc3)cc2)CCc2c(Cl)cccc21 (stereo not shown) [III-143] |
| ≥ 10 µM | < 50% | 3 to 10 µM | ++ (≥150 and <350) | CCC1(C(=O)NS(=O)(=O)c2cccc(C#N)c2)CCc2c(Cl)cccc21 (stereo not shown) [III-144] |
